{
  "source": "ChEMBL document CHEMBL5137051",
  "about": "(Eur J Med Chem, 2022)",
  "key": {"NCI-H1975": {"system": "NCI-H1975", "assay": "Antiproliferative activity against human H1975 cells assessed as cell viability after 72 hrs by MTT assay", "assay_type": "functional, cell-based", "conditions": "NCI-H1975, 72 h"}, "[1]": {"system": "Epidermal growth factor receptor (Homo sapiens), P00533 [L858R,T790M,C797S]", "sequence (P00533 whole entry T790M/C797S/L858R)": "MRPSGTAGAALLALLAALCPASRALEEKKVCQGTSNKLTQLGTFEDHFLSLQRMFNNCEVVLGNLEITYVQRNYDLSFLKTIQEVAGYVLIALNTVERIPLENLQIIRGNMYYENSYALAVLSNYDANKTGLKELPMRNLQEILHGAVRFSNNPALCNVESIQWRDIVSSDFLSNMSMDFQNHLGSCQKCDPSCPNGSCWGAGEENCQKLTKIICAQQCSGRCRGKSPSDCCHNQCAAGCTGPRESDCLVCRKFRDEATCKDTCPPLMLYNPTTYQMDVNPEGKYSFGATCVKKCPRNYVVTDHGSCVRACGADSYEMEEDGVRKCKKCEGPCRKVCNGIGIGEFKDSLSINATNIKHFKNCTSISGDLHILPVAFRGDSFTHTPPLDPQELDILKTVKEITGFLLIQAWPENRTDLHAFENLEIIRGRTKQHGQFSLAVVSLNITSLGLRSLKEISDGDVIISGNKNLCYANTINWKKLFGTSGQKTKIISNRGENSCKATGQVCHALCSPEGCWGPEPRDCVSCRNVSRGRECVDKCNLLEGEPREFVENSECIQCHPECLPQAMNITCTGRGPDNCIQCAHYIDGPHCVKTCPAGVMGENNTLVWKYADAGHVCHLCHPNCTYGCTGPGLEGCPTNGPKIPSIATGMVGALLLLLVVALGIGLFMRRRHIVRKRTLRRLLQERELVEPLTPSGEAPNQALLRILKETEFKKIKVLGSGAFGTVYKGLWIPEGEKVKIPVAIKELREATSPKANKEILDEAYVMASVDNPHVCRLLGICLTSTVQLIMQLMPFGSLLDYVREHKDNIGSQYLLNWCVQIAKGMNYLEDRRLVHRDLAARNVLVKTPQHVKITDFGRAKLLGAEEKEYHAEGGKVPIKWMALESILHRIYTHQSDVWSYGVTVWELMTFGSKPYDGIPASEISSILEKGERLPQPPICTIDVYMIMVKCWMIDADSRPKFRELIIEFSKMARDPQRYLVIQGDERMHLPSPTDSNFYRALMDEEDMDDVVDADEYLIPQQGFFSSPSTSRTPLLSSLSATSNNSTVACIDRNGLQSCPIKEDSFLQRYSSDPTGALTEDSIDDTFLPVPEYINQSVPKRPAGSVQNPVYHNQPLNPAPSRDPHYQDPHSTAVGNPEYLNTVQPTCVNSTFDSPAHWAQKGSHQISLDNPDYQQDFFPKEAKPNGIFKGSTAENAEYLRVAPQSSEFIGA", "conditions": "dose 300.0 nM"}, "A549": {"system": "A549", "assay": "Antiproliferative activity against human A549 cells assessed as cell viability after 72 hrs by MTT assay", "assay_type": "functional, cell-based", "conditions": "A549, 72 h"}, "[2]": {"target": "Hepatocyte growth factor receptor (Homo sapiens, UniProt P08581)", "sequence (P08581 whole entry)": "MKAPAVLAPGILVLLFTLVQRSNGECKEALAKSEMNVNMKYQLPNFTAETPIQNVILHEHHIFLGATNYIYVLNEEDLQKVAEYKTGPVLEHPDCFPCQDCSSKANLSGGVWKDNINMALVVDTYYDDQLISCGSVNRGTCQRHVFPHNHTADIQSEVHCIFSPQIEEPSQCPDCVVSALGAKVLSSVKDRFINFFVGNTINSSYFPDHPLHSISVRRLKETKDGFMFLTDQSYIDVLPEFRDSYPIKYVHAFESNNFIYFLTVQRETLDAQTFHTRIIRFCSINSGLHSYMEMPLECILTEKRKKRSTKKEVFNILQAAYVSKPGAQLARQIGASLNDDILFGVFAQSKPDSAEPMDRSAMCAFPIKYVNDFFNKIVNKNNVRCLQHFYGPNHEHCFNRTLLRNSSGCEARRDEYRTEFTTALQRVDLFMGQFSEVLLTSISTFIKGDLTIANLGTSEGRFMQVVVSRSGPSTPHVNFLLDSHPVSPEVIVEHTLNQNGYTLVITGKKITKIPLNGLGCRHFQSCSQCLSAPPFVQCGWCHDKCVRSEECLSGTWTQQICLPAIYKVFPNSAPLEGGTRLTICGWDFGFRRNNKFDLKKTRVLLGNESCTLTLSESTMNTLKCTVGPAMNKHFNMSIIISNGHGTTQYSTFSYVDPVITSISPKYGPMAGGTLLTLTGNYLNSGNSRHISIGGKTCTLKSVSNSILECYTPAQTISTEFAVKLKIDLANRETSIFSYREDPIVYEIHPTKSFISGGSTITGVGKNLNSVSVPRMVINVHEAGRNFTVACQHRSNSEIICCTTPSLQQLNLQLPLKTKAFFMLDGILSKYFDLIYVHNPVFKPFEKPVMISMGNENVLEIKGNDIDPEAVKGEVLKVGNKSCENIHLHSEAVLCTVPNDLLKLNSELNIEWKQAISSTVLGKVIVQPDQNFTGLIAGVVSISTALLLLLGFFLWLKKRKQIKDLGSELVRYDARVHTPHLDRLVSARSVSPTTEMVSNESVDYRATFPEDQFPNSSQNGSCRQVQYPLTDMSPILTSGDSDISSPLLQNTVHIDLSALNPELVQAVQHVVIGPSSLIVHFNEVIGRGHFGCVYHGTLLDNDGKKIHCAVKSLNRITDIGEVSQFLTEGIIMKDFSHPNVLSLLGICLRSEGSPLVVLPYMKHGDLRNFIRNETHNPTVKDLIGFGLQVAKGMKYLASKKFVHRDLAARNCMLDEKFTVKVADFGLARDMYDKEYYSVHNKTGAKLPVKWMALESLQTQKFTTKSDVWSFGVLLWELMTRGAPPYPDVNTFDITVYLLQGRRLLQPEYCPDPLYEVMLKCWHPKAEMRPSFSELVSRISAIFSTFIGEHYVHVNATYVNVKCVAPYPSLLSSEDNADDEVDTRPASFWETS", "assay": "Inhibition of c-Met (unknown origin) by mobility shift assay"}},
  "data": [
    {"smiles": "COc1cc(F)c(NC(=O)c2ccncc2)cc1Nc1nccc(-c2cn(C)c3ccccc23)n1", "values": [
      {"measurement": "IC50", "setting": "NCI-H1975", "value": 4.37, "unit": "µM"},
      {"measurement": "inhibition", "setting": "[1]", "value": 15.5, "unit": "%"},
      {"measurement": "IC50", "setting": "A549", "value": 4.2, "unit": "µM"}
    ]},
    {"smiles": "COc1cc(N(C)C)c(NC(=O)c2nccn2C)cc1Nc1nccc(-c2cn(C)c3ccccc23)n1", "values": [
      {"measurement": "IC50", "setting": "NCI-H1975", "value": 2.88, "unit": "µM"},
      {"measurement": "inhibition", "setting": "[1]", "value": 12.1, "unit": "%"},
      {"measurement": "IC50", "setting": "A549", "value": 10.2, "unit": "µM"}
    ]},
    {"smiles": "COc1ccc(C(=O)Nc2cc(Nc3nc(-c4cn(C)c5ccccc45)c4cccnc4n3)c(OC)cc2N(C)CCN(C)C)nc1", "values": [
      {"measurement": "IC50", "setting": "NCI-H1975", "value": 1.16, "unit": "µM"},
      {"measurement": "inhibition", "setting": "[1]", "value": 12.8, "unit": "%"},
      {"measurement": "IC50", "setting": "A549", "value": 4.23, "unit": "µM"}
    ]},
    {"smiles": "COc1cc(N(C)C)c(NC(=O)c2c[nH]cn2)cc1Nc1nccc(-c2cn(C)c3ccccc23)n1", "values": [
      {"measurement": "IC50", "setting": "NCI-H1975", "value": 3.12, "unit": "µM"},
      {"measurement": "inhibition", "setting": "[1]", "value": 24.7, "unit": "%"},
      {"measurement": "IC50", "setting": "A549", "value": 3.56, "unit": "µM"}
    ]},
    {"smiles": "COc1cc(N(C)C)c(NC(=O)c2ccncc2OC)cc1Nc1nccc(-c2cn(C)c3ccccc23)n1", "values": [
      {"measurement": "IC50", "setting": "NCI-H1975", "value": 12.1, "unit": "µM"},
      {"measurement": "inhibition", "setting": "[1]", "value": 7.9, "unit": "%"},
      {"measurement": "IC50", "setting": "A549", "value": 3.03, "unit": "µM"}
    ]},
    {"smiles": "COc1cc(N(C)C)c(NC(=O)c2ccncn2)cc1Nc1nccc(-c2cn(C)c3ccccc23)n1", "values": [
      {"measurement": "IC50", "setting": "NCI-H1975", "value": 1.25, "unit": "µM"},
      {"measurement": "inhibition", "setting": "[1]", "value": 8.8, "unit": "%"},
      {"measurement": "IC50", "setting": "A549", "value": 5.16, "unit": "µM"}
    ]},
    {"smiles": "COc1cc(N(C)C)c(NC(=O)c2ccccn2)cc1Nc1nccc(-c2cn(C)c3ccccc23)n1", "values": [
      {"measurement": "IC50", "setting": "NCI-H1975", "value": 10.3, "unit": "µM"},
      {"measurement": "inhibition", "setting": "[1]", "value": 10.5, "unit": "%"},
      {"measurement": "IC50", "setting": "A549", "value": 8.29, "unit": "µM"}
    ]},
    {"smiles": "COc1cc(N(C)CCN(C)C)c(NC(=O)c2cnccn2)cc1Nc1nc(-c2cn(C)c3ccccc23)c2ccccc2n1", "values": [
      {"measurement": "IC50", "setting": "NCI-H1975", "value": 16.3, "unit": "µM"},
      {"measurement": "inhibition", "setting": "[1]", "value": -9.4, "unit": "%"},
      {"measurement": "IC50", "setting": "A549", "value": 10.1, "unit": "µM"}
    ]},
    {"smiles": "COc1cc(F)c(NC(=O)c2ccnc(O)c2)cc1Nc1nccc(-c2cn(C)c3ccccc23)n1", "values": [
      {"measurement": "IC50", "setting": "NCI-H1975", "value": 5.92, "unit": "µM"},
      {"measurement": "inhibition", "setting": "[1]", "value": 10.6, "unit": "%"},
      {"measurement": "IC50", "setting": "A549", "value": 11.7, "unit": "µM"}
    ]},
    {"smiles": "COc1cc(F)c(NC(=O)c2nccn2C)cc1Nc1nccc(-c2cn(C)c3ccccc23)n1", "values": [
      {"measurement": "IC50", "setting": "NCI-H1975", "value": 10.6, "unit": "µM"},
      {"measurement": "inhibition", "setting": "[1]", "value": 7.7, "unit": "%"},
      {"measurement": "IC50", "setting": "A549", "value": 5.14, "unit": "µM"}
    ]},
    {"smiles": "COc1cc(N(C)CCN(C)C)c(NC(=O)c2nccn2C)cc1Nc1nccc(-c2cn(C)c3ccccc23)n1", "values": [
      {"measurement": "IC50", "setting": "NCI-H1975", "value": 3.32, "unit": "µM"},
      {"measurement": "IC50", "setting": "[2]", "value": "> 1", "unit": "µM"},
      {"measurement": "IC50", "setting": "A549", "value": 2.55, "unit": "µM"}
    ]},
    {"smiles": "COc1ccc(C(=O)Nc2cc(Nc3nccc(-c4cn(C)c5ccccc45)n3)c(OC)cc2F)nc1", "values": [
      {"measurement": "IC50", "setting": "NCI-H1975", "value": 16.8, "unit": "µM"},
      {"measurement": "inhibition", "setting": "[1]", "value": 1.5, "unit": "%"},
      {"measurement": "IC50", "setting": "A549", "value": 8.2, "unit": "µM"}
    ]},
    {"smiles": "C=CC(=O)Nc1cc(Nc2nccc(-c3cn(C)c4ccccc34)n2)c(OC)cc1N(C)CCN(C)C", "note": "[OSIMERTINIB]", "values": [
      {"measurement": "IC50", "setting": "NCI-H1975", "value": "[…]"},
      {"measurement": "IC50", "setting": "[2]", "value": "> 1", "unit": "µM"},
      {"measurement": "IC50", "setting": "A549", "value": 1.87, "unit": "µM"}
    ]},
    {"smiles": "COc1ccc(C(=O)Nc2cc(Nc3nccc(-c4cn(C)c5ccccc45)n3)c(OC)cc2N(C)C)nc1", "values": [
      {"measurement": "IC50", "setting": "NCI-H1975", "value": 2.13, "unit": "µM"},
      {"measurement": "inhibition", "setting": "[1]", "value": 1.2, "unit": "%"},
      {"measurement": "IC50", "setting": "A549", "value": 5.15, "unit": "µM"}
    ]},
    {"smiles": "COc1cc(N(C)C)c(NC(=O)c2ccncc2)cc1Nc1nccc(-c2cn(C)c3ccccc23)n1", "values": [
      {"measurement": "IC50", "setting": "NCI-H1975", "value": 1.47, "unit": "µM"},
      {"measurement": "inhibition", "setting": "[1]", "value": 18.1, "unit": "%"},
      {"measurement": "IC50", "setting": "A549", "value": 9, "unit": "µM"}
    ]},
    {"smiles": "COc1cc(N(C)CCN(C)C)c(NC(=O)c2ccncc2OC)cc1Nc1nccc(-c2cn(CCCO)c3ccccc23)n1", "values": [
      {"measurement": "IC50", "setting": "NCI-H1975", "value": 1.97, "unit": "µM"},
      {"measurement": "inhibition", "setting": "[1]", "value": 49.5, "unit": "%"},
      {"measurement": "IC50", "setting": "A549", "value": 2.39, "unit": "µM"}
    ]},
    {"smiles": "COc1cc(F)c(NC(=O)c2ccnc(Cl)c2)cc1Nc1nccc(-c2cn(C)c3ccccc23)n1", "values": [
      {"measurement": "IC50", "setting": "NCI-H1975", "value": 4.33, "unit": "µM"},
      {"measurement": "inhibition", "setting": "[1]", "value": 9.6, "unit": "%"},
      {"measurement": "IC50", "setting": "A549", "value": 6.89, "unit": "µM"}
    ]},
    {"smiles": "COc1cc(F)c(NC(=O)c2ccccn2)cc1Nc1nccc(-c2cn(C)c3ccccc23)n1", "values": [
      {"measurement": "IC50", "setting": "NCI-H1975", "value": 16.5, "unit": "µM"},
      {"measurement": "inhibition", "setting": "[1]", "value": -1.4, "unit": "%"},
      {"measurement": "IC50", "setting": "A549", "value": 7.98, "unit": "µM"}
    ]},
    {"smiles": "COc1cc(N(C)C)c(NC(=O)c2ncccn2)cc1Nc1nccc(-c2cn(C)c3ccccc23)n1", "values": [
      {"measurement": "IC50", "setting": "NCI-H1975", "value": 5.4, "unit": "µM"},
      {"measurement": "inhibition", "setting": "[1]", "value": 7.4, "unit": "%"},
      {"measurement": "IC50", "setting": "A549", "value": 8.64, "unit": "µM"}
    ]},
    {"smiles": "COc1cc(N(C)C)c(NC(=O)c2ccnc(Cl)c2)cc1Nc1nccc(-c2cn(C)c3ccccc23)n1", "values": [
      {"measurement": "IC50", "setting": "NCI-H1975", "value": 9.2, "unit": "µM"},
      {"measurement": "inhibition", "setting": "[1]", "value": 9.4, "unit": "%"},
      {"measurement": "IC50", "setting": "A549", "value": 3.43, "unit": "µM"}
    ]},
    {"smiles": "COc1cc(F)c(NC(=O)c2ccncc2OC)cc1Nc1nccc(-c2cn(C)c3ccccc23)n1", "values": [
      {"measurement": "IC50", "setting": "NCI-H1975", "value": 4.12, "unit": "µM"},
      {"measurement": "inhibition", "setting": "[1]", "value": 2.2, "unit": "%"},
      {"measurement": "IC50", "setting": "A549", "value": 3.43, "unit": "µM"}
    ]},
    {"smiles": "COc1cc(N(C)C)c(NC(=O)c2ccnc(Cl)n2)cc1Nc1nccc(-c2cn(C)c3ccccc23)n1", "values": [
      {"measurement": "IC50", "setting": "NCI-H1975", "value": 3.66, "unit": "µM"},
      {"measurement": "inhibition", "setting": "[1]", "value": -1.8, "unit": "%"},
      {"measurement": "IC50", "setting": "A549", "value": 2.84, "unit": "µM"}
    ]},
    {"smiles": "COc1cc(F)c(NC(=O)c2cnccn2)cc1Nc1nccc(-c2cn(C)c3ccccc23)n1", "values": [
      {"measurement": "IC50", "setting": "NCI-H1975", "value": 24.8, "unit": "µM"},
      {"measurement": "inhibition", "setting": "[1]", "value": 9.7, "unit": "%"},
      {"measurement": "IC50", "setting": "A549", "value": 2.49, "unit": "µM"}
    ]},
    {"smiles": "COc1cc(F)c(NC(=O)c2ncccn2)cc1Nc1nccc(-c2cn(C)c3ccccc23)n1", "values": [
      {"measurement": "IC50", "setting": "NCI-H1975", "value": 13.5, "unit": "µM"},
      {"measurement": "inhibition", "setting": "[1]", "value": 9.6, "unit": "%"},
      {"measurement": "IC50", "setting": "A549", "value": 8.4, "unit": "µM"}
    ]}
  ]
}
